The target of experiment [1] is human GlyT1c (Homo sapiens (Human), UniProt P48067). As to the kind of experiment: [3H]-Glycine uptake into recombinant CHO cells expressing human GlyT1. Type of experiment: cell-based. The note with it: hGlyT1c_5_CHO cells, 200 nM [3H]-glycine. An outline of the steps: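 hGlyT1c-expressing CHO cells plated at 20,000 cells/well and cultured 24 h; [3H]-glycine incorporation read continuously by solid-phase scintillation for up to 3 h. IC50 from four-parameter logistic fit using the linear uptake phase between 60 and 120 min.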
Sequence of human GlyT1c (P48067 whole entry): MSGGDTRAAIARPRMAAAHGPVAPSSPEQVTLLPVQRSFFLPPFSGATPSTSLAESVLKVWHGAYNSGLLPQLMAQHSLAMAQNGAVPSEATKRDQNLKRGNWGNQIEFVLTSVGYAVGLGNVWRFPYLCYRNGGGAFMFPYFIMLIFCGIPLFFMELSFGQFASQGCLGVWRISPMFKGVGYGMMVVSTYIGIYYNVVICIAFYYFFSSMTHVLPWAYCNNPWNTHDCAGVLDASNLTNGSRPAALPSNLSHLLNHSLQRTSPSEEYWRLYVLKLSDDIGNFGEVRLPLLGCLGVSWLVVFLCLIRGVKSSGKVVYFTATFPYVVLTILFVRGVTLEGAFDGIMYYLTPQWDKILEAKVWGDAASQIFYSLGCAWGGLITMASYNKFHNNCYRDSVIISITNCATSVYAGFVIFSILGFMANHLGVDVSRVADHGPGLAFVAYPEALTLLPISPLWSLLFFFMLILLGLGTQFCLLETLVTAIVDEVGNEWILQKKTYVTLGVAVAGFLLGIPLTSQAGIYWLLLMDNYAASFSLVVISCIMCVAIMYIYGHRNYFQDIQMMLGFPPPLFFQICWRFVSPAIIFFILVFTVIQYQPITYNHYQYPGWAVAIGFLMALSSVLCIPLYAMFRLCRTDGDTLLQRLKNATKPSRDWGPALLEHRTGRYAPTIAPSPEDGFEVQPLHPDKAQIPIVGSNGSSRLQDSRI

For experiment [2], the target named is human GlyT1c transporter (Homo sapiens (Human), UniProt P48067). Nature of the experiment: Radioligand binding assay using recombinant CHO cell membranes expressing human GlyT1. As to conditions: read-out: radioligand binding Kiapp. An outline of the steps:
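Competition binding of [^3H]-(R)-NPTS (0.5 nM) to CHO membranes expressing human GlyT1c (50 μg/ml protein) in pH 7.5 Hepes/NaCl buffer with 1% DMSO, 1 h at room temperature. Non-specific binding defined with 10 μM Org24598; filtration and scintillation counting, one-site fit, Ki via Cheng-Prusoff.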

[3] abbreviates: radioligand [3H]-(R)-NPTS (examples 1-19, 22-52, 54-87).
Setting [4] is: examples 88-204, radioligand not specified by footnote.

IC50 and Ki data for 25 compounds are collected here from patent publication US8653100B2 (AbbVie Inc., priority 2008, dated 2014).

Structures can show the parent of a compound that is named as a salt. Where two headings read alike, the source gives them in different places.

Sequence of human GlyT1c transporter (P48067 whole entry): as above

In general, IC50 refers to the point on the concentration scale where inhibition reaches its midpoint. As for `O=S(=O)(NCCOc1ccc2c(c1)C(C1(c3ccc(Cl)cc3)CCC1)NCC2)c1ccc(Cl)nc1` (centres unmarked) [Example 29, 6-Chloro-pyridine-3-sulfonic acid (2-{1-[1-(4-chloro-phenyl)-cyclobutyl]-1,2,3,4-tetrahydro-isoquinolin-7-yloxy}-ethyl)-amide hydrochloride], the IC50 in experiment [1] was not above 1 µM. Further, the Ki in experiment [2] (setting [3]) was not above 1 µM.
For the compound `O=S(=O)(NCCOc1ccc2c(c1)C(C1(c3ccc(Cl)cc3)CCC1)NCC2)c1cccc2cccnc12` (centres unmarked) [Example 30, Quinoline-8-sulfonic acid (2-{1-[1-(4-chloro-phenyl)-cyclobutyl]-1,2,3,4-tetrahydro-isoquinolin-7-yloxy}-ethyl)-amide hydrochloride], the IC50 in experiment [1] was not above 1 µM. The Ki in experiment [2] (setting [3]) was not above 10 µM.
In the case of `COc1ccc(S(=O)(=O)NCCOc2ccc3c(c2)C(C2(c4ccc(Cl)cc4)CCC2)NCC3)cc1` (centres unmarked) [Example 31, N-(2-{1-[1-(4-Chloro-phenyl)-cyclobutyl]-1,2,3,4-tetrahydro-isoquinolin-7-yloxy}-ethyl)-4-methoxy-benzenesulfonamide hydrochloride], the half-inhibitory concentration (IC50) in experiment [1] is not above 1 µM. In addition, the Ki in experiment [2] (setting [3]) was not above 1 µM.
Consider `O=S(=O)(Cc1ccccc1)NCCOc1ccc2c(c1)C(C1(c3ccc(Cl)cc3)CCC1)NCC2` (centres unmarked) [Example 32, N-(2-{1-[1-(4-Chloro-phenyl)-cyclobutyl]-1,2,3,4-tetrahydro-isoquinolin-7-yloxy}-ethyl)-C-phenyl-methanesulfonamide hydrochloride], for which the IC50 in experiment [1] is not above 10 µM. The Ki in experiment [2] (setting [3]) is not above 10 µM.
For `O=S(=O)(NCCOc1ccc2c(c1)C(C1(c3ccc(Cl)cc3)CCC1)NCC2)c1ccccc1` (centres unmarked) [Example 62, N-(2-{1-[1-(4-Chloro-phenyl)-cyclobutyl]-1,2,3,4-tetrahydro-isoquinolin-7-yloxy}-ethyl)-benzenesulfonamide hydrochloride], in experiment [1], the half-maximal inhibitory concentration (IC50) was not above 1 µM. Besides, the Ki in experiment [2] (setting [3]) was not above 1 µM.
Take `CCCS(=O)(=O)NCCOc1ccc2c(c1)C(C1(c3ccc(F)cc3)CCC1)NCC2` (centres unmarked) [Example 65, N-[2-({1-[1-(4-Fluorophenyl)cyclobutyl]-1,2,3,4-tetrahydroisoquinolin-7-yl}oxy)ethyl]propane-1-sulfonamide hydrochloride]: the IC50 in experiment [1] is not above 0.1 µM. The Ki in experiment [2] (setting [3]) was not above 0.1 µM.
For `CCCS(=O)(=O)NCCOc1ccc2c(c1)C(C1(c3ccc(F)cc3)CCC1)N(C(=N)N)CC2` (centres unmarked) [Example 72, 1-[1-(4-Fluorophenyl)cyclobutyl]-7-{2-[(propylsulfonyl)amino]ethoxy}-3,4-dihydroisoquinoline-2(1H)-carboximidamide acetate], in experiment [1], the half-maximal inhibitory concentration (IC50) was not above 1 µM. Also, the Ki in experiment [2] (setting [3]) was not above 10 µM.
On to `CCCS(=O)(=O)N1CCN(c2cc3c(cc2OC)C(C2(c4ccc(Cl)cc4)CCC2)N(S(=O)(=O)CCC)CC3)CC1` (centres unmarked) [Example 84, 1-[1-(4-Chlorophenyl)cyclobutyl]-7-methoxy-2-(propylsulfonyl)-6-[4-(propylsulfonyl)-piperazin-1-yl]-1,2,3,4-tetrahydroisoquinoline], for which the half-maximal inhibitory concentration (IC50) in experiment [1] was not above 100 µM. Also, in experiment [2] (setting [3]), the Ki was not above 10 µM.
As to `O=S(=O)(NCCOc1ccc2c(c1)C(C1(c3cccc(F)c3)CCC1)NCC2)c1cccnc1` (centres unmarked) [Example 101, N-[2-({1-[1-(3-fluorophenyl)cyclobutyl]-1,2,3,4-tetrahydroisoquinolin-7-yl}oxy)ethyl]pyridine-3-sulfonamide dihydrochloride], in experiment [1], the IC50 was not above 1 µM. Further, the Ki in experiment [2] (setting [4]) is not above 0.1 µM.
The like results for `CC(C)(O)CS(=O)(=O)NCCOc1ccc2c(c1)C(C1(c3ccc(Cl)cc3)CCC1)NCC2` (centres unmarked) [Example 103, N-[2-({1-[1-(4-Chlorophenyl)cyclobutyl]-1,2,3,4-tetrahydroisoquinolin-7-yl}oxy)ethyl]-2-hydroxy-2-methylpropane-1-sulfonamide hydrochloride] were, in that order, not above 0.1 µM and not above 0.1 µM.
In the case of `O=S(=O)(NCCOc1ccc2c(c1)C(C1(c3cccc(F)c3)CCC1)NCC2)c1cccs1` (centres unmarked) [Example 106, N-[2-({1-[1-(3-Fluorophenyl)cyclobutyl]-1,2,3,4-tetrahydroisoquinolin-7-yl}oxy)ethyl]thiophene-2-sulfonamide hydrochloride], the IC50 in experiment [1] is not above 10 µM. In addition, the Ki in experiment [2] (setting [4]) is not above 1 µM.
On to `O=S(=O)(NCc1ccc2c(c1)C(C1(c3ccc(Cl)cc3)CCC1)NCC2)c1cccnc1` (centres unmarked) [Example 108, N-({1-[1-(4-Chlorophenyl)cyclobutyl]-1,2,3,4-tetrahydroisoquinolin-7-yl}methyl)pyridine-3-sulfonamide dihydrochloride], for which the IC50 in experiment [1] was not above 10 µM. The Ki in experiment [2] (setting [4]) was not above 1 µM.
Turning to `O=S(=O)(CCCOc1ccc2c(c1)C(C1(c3ccc(Cl)cc3)CCC1)NCC2)Nc1ccccc1` (centres unmarked) [Example 112, 3-({1-[1-(4-Chlorophenyl)cyclobutyl]-1,2,3,4-tetrahydroisoquinolin-7-yl}oxy)-N-phenylpropane-1-sulfonamide hydrochloride], in experiment [1], the half-inhibitory concentration (IC50) was not above 10 µM. In experiment [2] (setting [4]), the Ki is not above 1 µM.
For the compound `O=S(=O)(Nc1ccccc1Oc1ccc2c(c1)C(C1(c3ccc(Cl)cc3)CCC1)NCC2)c1cccs1` (centres unmarked) [Example 116, N-[2-({1-[1-(4-Chlorophenyl)cyclobutyl]-1,2,3,4-tetrahydroisoquinolin-7-yl}oxy)phenyl]thiophene-2-sulfonamide hydrochloride], in experiment [1], the IC50 was not above 100 µM. Moreover, in experiment [2] (setting [4]), the Ki is not above 1 µM.
With `CC(C)NS(=O)(=O)CCCOc1ccc2c(c1)C(C1(c3ccc(Cl)cc3)CCC1)NCC2` (centres unmarked) [Example 117, 3-({1-[1-(4-Chlorophenyl)cyclobutyl]-1,2,3,4-tetrahydroisoquinolin-7-yl}oxy)-N-(propan-2-yl)propane-1-sulfonamide hydrochloride], the IC50 in experiment [1] was not above 10 µM. Also, the Ki in experiment [2] (setting [4]) was not above 1 µM.
Consider `CC(C)(C)NS(=O)(=O)CCCOc1ccc2c(c1)C(C1(c3ccc(Cl)cc3)CCC1)NCC2` (centres unmarked) [Example 118, N-tert-Butyl-3-({1-[1-(4-chlorophenyl)cyclobutyl]-1,2,3,4-tetrahydroisoquinolin-7-yl}oxy)propane-1-sulfonamide hydrochloride], for which the IC50 in experiment [1] is not above 10 µM. The Ki in experiment [2] (setting [4]) is not above 1 µM.
For `COc1ccccc1NS(=O)(=O)CCCOc1ccc2c(c1)C(C1(c3ccc(Cl)cc3)CCC1)NCC2` (centres unmarked) [Example 121, 3-({1-[1-(4-Chlorophenyl)cyclobutyl]-1,2,3,4-tetrahydroisoquinolin-7-yl}oxy)-N-(2-methoxyphenyl)propane-1-sulfonamide hydrochloride], the IC50 in experiment [1] was not above 10 µM. The Ki in experiment [2] (setting [4]) is not above 10 µM.
With `CC(C)(C)OC(=O)N1CCN(S(=O)(=O)CCCOc2ccc3c(c2)C(C2(c4ccc(Cl)cc4)CCC2)NCC3)CC1` (centres unmarked) [Example 123, tert-Butyl 4-{[3-({1-[1-(4-chlorophenyl)cyclobutyl]-1,2,3,4-tetrahydroisoquinolin-7-yl}oxy)propyl]sulfonyl}piperazine-1-carboxylate], in experiment [1], the IC50 was not above 100 µM. Besides, in experiment [2] (setting [4]), the Ki is not above 10 µM.
Consider `CC(C)(C)OC(=O)NCCNS(=O)(=O)CCCOc1ccc2c(c1)C(C1(c3ccc(Cl)cc3)CCC1)NCC2` (centres unmarked) [Example 126, tert-Butyl [2-({[3-({1-[1-(4-chlorophenyl)cyclobutyl]-1,2,3,4-tetrahydroisoquinolin-7-yl}oxy)propyl]sulfonyl}amino)ethyl]carbamate], for which the half-maximal inhibitory concentration (IC50) in experiment [1] is not above 10 µM. In addition, in experiment [2] (setting [4]), the Ki is not above 10 µM.
`NCCNS(=O)(=O)CCCOc1ccc2c(c1)C(C1(c3ccc(Cl)cc3)CCC1)NCC2` (centres unmarked) [Example 130, N-(2-Aminoethyl)-3-({1-[1-(4-chlorophenyl)cyclobutyl]-1,2,3,4-tetrahydroisoquinolin-7-yl}oxy)propane-1-sulfonamide dihydrochloride]: the IC50 in experiment [1] was not above 100 µM. The Ki in experiment [2] (setting [4]) is not above 10 µM.
`CN(C)CCNS(=O)(=O)CCCOc1ccc2c(c1)C(C1(c3ccc(Cl)cc3)CCC1)NCC2` (centres unmarked) [Example 132, 3-({1-[1-(4-Chlorophenyl)cyclobutyl]-1,2,3,4-tetrahydroisoquinolin-7-yl}oxy)-N-[2-(dimethylamino)ethyl]propane-1-sulfonamide dihydrochloride]: in experiment [1], the half-maximal inhibitory concentration (IC50) was not above 10 µM. The Ki in experiment [2] (setting [4]) was not above 10 µM.
As for `O=S(=O)(CCCOc1ccc2c(c1)C(C1(c3ccc(Cl)cc3)CCC1)NCC2)N1CCNCC1` (centres unmarked) [Example 133, 1-[1-(4-Chlorophenyl)cyclobutyl]-7-[3-(piperazin-1-ylsulfonyl)propoxy]-1,2,3,4-tetrahydroisoquinoline dihydrochloride], the IC50 in experiment [1] is not above 10 µM. The Ki in experiment [2] (setting [4]) is not above 10 µM.
For `COCCNS(=O)(=O)CCCOc1ccc2c(c1)C(C1(c3ccc(Cl)cc3)CCC1)NCC2` (centres unmarked) [Example 135, 3-({1-[1-(4-Chlorophenyl)cyclobutyl]-1,2,3,4-tetrahydroisoquinolin-7-yl}oxy)-N-(2-methoxyethyl)propane-1-sulfonamide hydrochloride], the half-maximal inhibitory concentration (IC50) in experiment [1] was not above 100 µM. Also, the Ki in experiment [2] (setting [4]) was not above 10 µM.
Consider `CCCS(=O)(=O)NCCOc1ccc2c(c1)C(C1(c3ccc(Cl)c(N)c3)CCC1)NCC2` (centres unmarked) [Example 142, N-[2-({1-[1-(3-Amino-4-chlorophenyl)cyclobutyl]-1,2,3,4-tetrahydroisoquinolin-7-yl}oxy)ethyl]propane-1-sulfonamide dihydrochloride], for which, in experiment [1], the half-inhibitory concentration (IC50) is not above 0.1 µM. For the same compound, the Ki in experiment [2] (setting [4]) was not above 0.1 µM.
Regarding `CCCS(=O)(=O)NCCOc1ccc2c(c1)C(C(C)c1ccc(Cl)cc1)NCC2` (centres unmarked) [Example 145, N-[2-({1-[1-(4-Chlorophenyl)ethyl]-1,2,3,4-tetrahydroisoquinolin-7-yl}oxy)ethyl]propane-1-sulfonamide hydrochloride], the concentration for half-maximal inhibition (IC50) in experiment [1] was not above 0.1 µM. Further, in experiment [2] (setting [4]), the Ki was not above 0.1 µM.
